In US5744485A, “Carbamates and ureas as modifiers of multi-drug resistance” (Vertex Pharmaceuticals Incorporated, priority 1995, dated 1998):

What was measured:
[1] = tested on: L1210 mouse leukemia cells transformed with the pHaMDR1/A retrovirus carrying a MDR1 cDNA (L1210VMDRC.06); assay: MDR sensitization assay: reversal of MDR to doxorubicin in L1210VMDRC.06 cells (MTT or XTT viability, 3 days) (Table 1); conditions: for MDR Ratio 1.0 μM Cpd. / MDR Ratio (2.5 μM): mouse, l1210vmdrc.06 cells, 72 h
Protocol: To assay the ability of the compounds according to this invention to increase the antiproliferative activity of a drug, cell lines which are known to be resistant to a particular drug may be used. These cell lines include, but are not limited to, the L1210, P388D, CHO and MCF7 cell lines. Alternatively, resistant cell lines may be developed. The cell line is exposed to the drug to which it is resistant, or to the test compound; cell viability is then measured and compared to the viability of cells which are exposed to the drug in the presence of the test compound.
We have carried out assays using L1210 mouse leukemia cells transformed with the pHaMDR1/A retrovirus carrying a MDR1 cDNA, as described by Pastan et al., Proc. Natl. Acad. Sci., Vol. 85, 4486-4490 (1988). The resistant line, labelled L1210VMDRC.06, was obtained from Dr. M. M. Gottesman of the National Cancer Institute.
Multi-drug resistance assays were conducted by plating cells (2×10^3, 1×10^4, or 5×10^4 cells/well) in 96 well microtiter plates and exposing them to a concentration range of doxorubicin (50 nM-10 μM) in the presence or absence of multi-drug resistance modifier compounds ("MDR inhibitors") of this invention (1, 2.5 or 10 μM) as described in Ford et al., Cancer Res., Vol. 50, 1748-1756. (1990). After culture for 3 days, the viability of cells was quantitated using MTT (Mossman) or XTT dyes to assess mitochondrial function. All determinations were made in replicates of 4 or 8. Also see, Mossman T., J. Immunol. Methods, Vol. 65, 55-63 (1983).
Results were determined by comparison of the IC50 for doxorubicin alone to the IC50 for doxorubicin+MDR inhibitor. An MDR ratio was calculated (IC50 Dox/IC50 Dox+Inhibitor) and the integer value used for comparison of compound potencies.

[2] = tested on: HL60/ADR cells; assay: Inhibition of MRP-mediated MDR: reversal of MDR to doxorubicin in HL60/ADR cells (XTT viability, 3 days) (Table 2); format: cell-based; conditions: Homo sapiens, 72 h, read-out: IC50 Dox alone
Protocol: We plated HL60/ADR cells in 96 well microtiter plates (4×10^4 cells/well). The cells were then exposed to various concentrations of doxorubicin (50 nM to 10 μM) in the presence or absence of various compounds of this invention at various concentrations (0.5-10 μM). After culturing the cells for 3 days, their viability was quantitated using the XTT dye method to assess mitochondrial function. Results were expressed as a ratio of the IC50 for doxorubicin alone to the IC50 for doxorubicin plus MDR inhibitor. IC50 values are expressed in nM. In all assays the intrinsic antiproliferative or cytotoxicity activity of the MDR inhibitors was also determined for HL60/ADR cells.

| Molecule | MDR Ratio 1.0 μM Cpd. [1] | MDR Ratio (2.5 μM) [1] | other results |
| --- | --- | --- | --- |
| CN(C(=O)N1CCCC[C@H]1C(=O)OC(CCCc1cccnc1)CCCc1cccnc1)c1ccc(C(C)(C)C)cc1 [Compound 7, (S)-1-((4-Tert-butylphenyl)-methyl-carbamoyl)-piperidine-2-carboxylic acid 4-pyridin-3-yl-1-(3-pyridin-3-yl-propyl)-butyl ester] | 4.0 | 15.4 |  |
| O=C(OC(COCc1ccccc1)COCc1ccccc1)[C@@H]1CCCCN1C(=O)Oc1cccc2ncccc12 [Compound 18, (S)-Piperidine-1,2-dicarboxylic acid 2-(2-benzyloxy-1-(benzyloxymethyl)-ethyl)ester 1-quinolin-5-yl ester] |  | 13.6 |  |
| COc1cc(N(C)C(=O)N2CCCC[C@H]2C(=O)OC(CCc2ccccc2)CCc2ccccc2)cc(OC)c1OC [Compound 13, (S)-1-((3,4,5-Trimethoxyphenyl)-methyl-carbamoyl)-piperidine-2-carboxylic acid 1-(2-phenyl-ethyl)-3-phenyl-propyl ester] | 3.0 | 11.5 |  |
| CN(C(=O)N1CCCC[C@H]1C(=O)OC(COCc1ccccc1)COCc1ccccc1)c1ccc(N2CCCCC2)cc1 [Compound 17, (S)-1-(Methyl-(4-piperidin-1-yl-phenyl)-carbamoyl)-piperidine-2-carboxylic acid 2-benzyloxy-1-(benzyloxy-methyl)-ethyl ester] |  | 10.7 |  |
| O=C(OC(CCCc1cccnc1)CCCc1cccnc1)[C@@H]1CCCCN1C(=O)N1CCCCC1 [Compound 9, (S)-1-(Piperidine-1-carbonyl)-piperidine-2-carboxylic acid 4-pyridin-3-yl-1-(3-pyridin-3-yl-propyl)-butyl ester] | 1.3 | 6.9 |  |
| CN(C(=O)N1CCCC[C@H]1C(=O)OC(CCCc1cccnc1)CCCc1cccnc1)c1cccc(C(F)(F)F)c1 [Compound 6, (S)-1-((3-Trifluoromethylphenyl)-methyl-carbamoyl)-piperidine-2-carboxylic acid 4-pyridin-3-yl-1-(3-pyridin-3-yl-propyl)-butyl ester] |  | 14.6 |  |
| (S)-1-((3,4,5-Trimethoxyphenyl)-methyl-carbamoyl)-piperidine-2-carboxylic acid 4-pyridin-1-yl-1-(3-pyridin-1-yl-propyl)-butyl ester [Compound 10] |  |  | IC50 Dox + 1 μM Cpd. ([1]; IC50 of doxorubicin in presence of 1 μM compound, L1210VMDRC.06 cells, 3 days): 400; IC50 Dox + 2.5 μM Cpd. ([1]; IC50 of doxorubicin in presence of 2.5 μM compound, L1210VMDRC.06 cells, 3 days): 85 |
| COc1cccc2c1C(=O)c1c(O)c3c(c(O)c1C2=O)C[C@@](O)(C(=O)CO)C[C@@H]3O[C@H]1C[C@H](N)[C@H](O)[C@H](C)O1 [Dox, doxorubicin, reference compound] |  |  | IC50 [2]: 5 µM |
| COc1cc(OC(=O)N2CCCC[C@H]2C(=O)OC(CCCc2cccnc2)CCCc2cccnc2)cc(OC)c1OC [Compound 11, (S)-Piperidine-1,2-dicarboxylic acid 1-(3,4,5-trimethoxyphenyl) ester 2-(4-pyridin-3-yl-1-(3-pyridin-3-yl-propyl)-butyl) ester] | 1.2 | 2.3 |  |
| CN(C(=O)N1CCCC[C@H]1C(=O)OC(COCc1ccccc1)COCc1ccccc1)c1ccc(N2CCOCC2)cc1 [Compound 16, (S)-1-(Methyl-(4-morpholin-1-yl-phenyl)-carbamoyl)-piperidine-2-carboxylic acid 2-benzyloxy-1-(benzyloxy-methyl)-ethyl ester] |  | 10.7 |  |
| CC(C)c1ccc(N(C)C(=O)N2CCCC[C@H]2C(=O)OC(CCCc2cccnc2)CCCc2cccnc2)cc1 [Compound 8, (S)-1-((4-Isopropylphenyl)-methyl-carbamoyl)-piperidine-2-carboxylic acid 4-pyridin-3-yl-1-(3-pyridin-3-yl-propyl)-butyl ester] | 1.9 | 3.6 |  |
| COc1cc(N(C)C(=O)N2CCCC[C@H]2C(=O)OC(CCCc2cccnc2)CCCc2cccnc2)cc(OC)c1OC [Compound 5, (S)-1-((3,4,5-Trimethoxyphenyl)-methyl-carbamoyl)-piperidine-2-carboxylic acid 4-pyridin-3-yl-1-(3-pyridin-3-yl-propyl)-butyl ester] | 2.8 | 7.8 |  |
| CN(C(=O)N1CCCCC1C(=O)OC(CCc1ccccc1)CCc1ccccc1)c1ccc(S(=O)(=O)O)cc1 (stereo not drawn) [Compound 14, 4-(Methyl-(2-(1-phenethyl-3-phenyl-propoxycarbonyl)-piperidine-1-carbonyl)-amino)-benzenesulfonic acid] | 1.9 | 3.6 |  |
